Reference: patent publication EP1329454A1, “THIENOPYRIMIDINE COMPOUNDS AND THEIR SALTS AND PROCESS FOR PREPARATION OF BOTH” (NIPPON SODA CO., LTD., priority 2000, dated 2002)

Experiments:
Assay type in all cases: biochemical
[1] = molecular target: T1, PDE 5 (cGMP specific PDE) (Homo sapiens, UniProt O76074); experiment: Phosphodiesterase inhibiting effect, PDE 5 separated from human platelets; conditions: isozyme from human platelets; [3H]-cAMP or [3H]-cGMP substrate; read-out: PDE inhibiting activity : IC50(nM) PDE5
T1 construct: from tissue; host or cells: human platelets, DEAE-cellulose fraction
Protocol: (§1) Cyclic nucleotide phosphodiesterases from human platelets and from the heart and kidney of a dog were eluted by the concentration gradient method with 70 to 1000 mM of sodium acetate on DEAE-cellulose column chromatography (Whatman Co. Ltd., DE-52, φ 3.2 x 13 cm) according to the method of Thompson and others (Thompson W. J., et al., Advances in Cyclic Nucleotide Research: 10, 69-92, 1979), and separated into isozymes. PDE 5 (cGMP specific PDE), PDE 3 (cGMP inhibited PDE) and PDE 2 (cGMP stimulated PDE) were separated from the platelets, PDE 1 (Ca-calmodulin dependent PDE) and PDE 4 (cAMP specific PDE) were separated from the heart and the kidney respectively. The method of Thompson, et al was partially modified to measure phosphodiesterase activities: […] of [3H]-cAMP or [3H]-cGMP was decomposed with phosphodiesterase. The produced 5'-AMP or 5'-GMP was decomposed to adenosine or guanosine with a snake venom (Sigma V7000). The reaction solution was added to anion exchange resin (Bio-Rad Co. Ltd., AG1-X8). Non-adsorbed adenosine or guanosine was counted by a liquid scintillation counter. […]

[2] = molecular target: PDE 4 (cAMP specific PDE); experiment: Phosphodiesterase inhibiting effect, PDE 4 separated from dog kidney; conditions: isozyme from the kidney of a dog; [3H]-cAMP or [3H]-cGMP substrate; read-out: PDE inhibiting activity : IC50(nM) PDE4
Protocol: as §1

[3] = molecular target: PDE 1 (Ca-calmodulin dependent PDE); experiment: Phosphodiesterase inhibiting effect, PDE 1 separated from dog heart; conditions: isozyme from the heart of a dog; [3H]-cAMP or [3H]-cGMP substrate; read-out: PDE inhibiting activity : IC50(nM) PDE1
Protocol: as §1

[4] = molecular target: T2, PDE 3 (cGMP inhibited PDE) (Homo sapiens, UniProt Q14432); conditions: isozyme from human platelets; [3H]-cAMP or [3H]-cGMP substrate; read-out: PDE inhibiting activity : IC50(nM) PDE3
T2 construct: from tissue; host or cells: human platelets, DEAE-cellulose fraction
Excerpt: PDE 5 (cGMP specific PDE), PDE 3 (cGMP inhibited PDE) and PDE 2 (cGMP stimulated PDE) were separated from the platelets, PDE 1 (Ca-calmodulin dependent PDE) and PDE 4 (cAMP specific PDE) were separated from the heart and the kidney respectively. The method of Thompson, et al was partially modified to measure phosphodiesterase activities: […] of [3H]-cAMP or [3H]-cGMP was decomposed with phosphodiesterase. The produced 5'-AMP or 5'-GMP was decomposed to adenosine or guanosine with a snake venom (Sigma V7000). The reaction solution was added to anion exchange resin (Bio-Rad Co. Ltd., AG1-X8). Non-adsorbed adenosine or guanosine was counted by a liquid scintillation counter.

T2 sequence (Q14432 whole entry): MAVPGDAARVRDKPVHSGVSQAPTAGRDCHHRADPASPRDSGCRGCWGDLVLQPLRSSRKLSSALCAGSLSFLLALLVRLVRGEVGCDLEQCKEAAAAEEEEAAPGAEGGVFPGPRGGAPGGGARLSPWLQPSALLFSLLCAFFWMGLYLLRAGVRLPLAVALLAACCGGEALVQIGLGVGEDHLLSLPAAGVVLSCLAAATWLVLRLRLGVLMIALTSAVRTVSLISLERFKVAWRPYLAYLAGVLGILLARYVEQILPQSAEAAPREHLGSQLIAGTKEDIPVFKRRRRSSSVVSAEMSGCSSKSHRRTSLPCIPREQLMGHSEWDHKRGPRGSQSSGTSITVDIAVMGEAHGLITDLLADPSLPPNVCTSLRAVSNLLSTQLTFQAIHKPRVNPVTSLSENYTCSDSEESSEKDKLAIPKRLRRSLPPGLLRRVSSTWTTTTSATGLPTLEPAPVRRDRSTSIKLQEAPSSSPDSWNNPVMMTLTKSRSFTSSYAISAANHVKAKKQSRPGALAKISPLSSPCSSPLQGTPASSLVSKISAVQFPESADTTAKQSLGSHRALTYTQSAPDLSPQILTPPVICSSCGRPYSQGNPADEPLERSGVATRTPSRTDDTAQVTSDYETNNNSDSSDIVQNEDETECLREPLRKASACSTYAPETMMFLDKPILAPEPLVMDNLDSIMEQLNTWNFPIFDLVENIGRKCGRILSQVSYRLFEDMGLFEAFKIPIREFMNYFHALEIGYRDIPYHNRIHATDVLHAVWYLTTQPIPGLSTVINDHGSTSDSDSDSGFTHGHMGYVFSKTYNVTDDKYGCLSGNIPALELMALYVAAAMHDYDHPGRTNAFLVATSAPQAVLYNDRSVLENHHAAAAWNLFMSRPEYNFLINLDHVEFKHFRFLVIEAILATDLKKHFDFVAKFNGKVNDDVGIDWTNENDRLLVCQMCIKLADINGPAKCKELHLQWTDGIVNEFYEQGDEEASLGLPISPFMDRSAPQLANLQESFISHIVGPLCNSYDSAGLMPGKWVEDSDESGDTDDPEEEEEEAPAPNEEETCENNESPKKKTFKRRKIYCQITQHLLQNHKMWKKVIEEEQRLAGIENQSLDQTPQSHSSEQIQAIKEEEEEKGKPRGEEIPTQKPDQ

Structure (SMILES)	IC50 [1] [nM]	IC50 [2] [nM]	IC50 [3] [nM]	IC50 [4] [nM]
COc1ccc(CNc2nc(-c3cccnc3)nc3sc(C(=O)O)c(C)c23)cc1Cl [Compound 1]	3	1200	7100	–
COc1ccc(CNc2nc(-c3cccnc3)nc3sc(C(N)=O)c(C)c23)cc1Cl [Compound 3]	2.3	–	–	–
COc1ccc(CNc2nc(-c3cccnc3)nc3sc(C#N)c(C)c23)cc1Cl [Compound 4]	4.5	–	–	–
COc1ccc(CNc2nc(-c3cccnc3)nc3sc(C(=O)N(C)C)c(C)c23)cc1Cl [Compound 5]	3.7	1400	> 10000	–
COc1ccc(CNc2nc(-c3cccnc3)nc3sc(C(=O)Nc4ccccc4)c(C)c23)cc1Cl [Compound 6]	1.5	–	> 10000	–
COc1ccc(CNc2nc(-c3cccnc3)nc3sc(C(=O)N4CCOCC4)c(C)c23)cc1Cl [Compound 7]	3.5	1700	> 10000	–
COc1ccc(CNc2nc(-c3cccnc3)nc3sc(C(=O)N4CCN(C=O)CC4)c(C)c23)cc1Cl [Compound 9]	6.1	–	–	–
COc1ccc(CNc2nc(-c3cccnc3)nc3sc(-c4ccncc4)c(C)c23)cc1Cl [Compound 10]	3.3	–	> 10000	–
COc1ccc(CNc2nc(-c3cccnc3)nc3sc(C(=O)Nc4nccs4)c(C)c23)cc1Cl [Compound 13]	0.32	–	–	–
COc1ccc(CNc2nc(-c3cccnc3)nc3sc(C(=O)Nc4cccnc4)c(C)c23)cc1Cl [Compound 14]	2.1	–	–	–
COc1ccc(CNc2nc(-c3cccnc3)nc3sc(C(=O)NCCO)c(C)c23)cc1Cl [Compound 17]	2.8	–	–	–
COc1ccc(CNc2nc(-c3cccnc3)nc3sc(C(=O)NCCO[N+](=O)[O-])c(C)c23)cc1Cl [Compound 18]	2.8	–	–	–
COc1ccc(CNc2nc(-c3ccncc3)nc3sc(C(=O)O)c(C)c23)cc1Cl [Compound 19]	0.74	4400	> 10000	–
CCOC(=O)c1sc2nc(-c3ccncc3)nc(NCc3ccc(OC)c(Cl)c3)c2c1C [Compound 20]	3.2	> 10000	> 10000	–
COc1ccc(CNc2nc(-c3ccncc3)nc3sc(C(=O)N(C)C)c(C)c23)cc1Cl [Compound 23]	1.6	1600	> 10000	–
COc1ccc(CNc2nc(-c3ccncc3)nc3sc(C(=O)Nc4ccccc4)c(C)c23)cc1Cl [Compound 24]	0.46	–	–	–
COc1ccc(CNc2nc(-c3ccncc3)nc3sc(C(=O)Nc4ccc(NC(=O)OC(C)(C)C)cc4)c(C)c23)cc1Cl [Compound 25]	0.52	–	–	–
COc1ccc(CNc2nc(-c3ccncc3)nc3sc(C(=O)Nc4ccc(N)cc4)c(C)c23)cc1Cl [Compound 26]	0.5	–	–	–

Structure (SMILES)	IC50 [1] [nM]	IC50 [2] [nM]	IC50 [3] [nM]	IC50 [4] [nM]
COc1ccc(CNc2nc(-c3ccncc3)nc3sc(C(=O)N4CCOCC4)c(C)c23)cc1Cl [Compound 27]	0.53	3700	> 10000	–
COc1ccc(CNc2nc(-c3ccncc3)nc3sc(C(=O)N4CCCCC4)c(C)c23)cc1Cl [Compound 28]	0.5	1600	> 10000	–
COc1ccc(CNc2nc(-c3ccncc3)nc3sc(C(=O)N4CCN(C)CC4)c(C)c23)cc1Cl [Compound 29]	0.52	6900	> 10000	–
COc1ccc(CNc2nc(-c3ccncc3)nc3sc(-c4ccccn4)c(C)c23)cc1Cl [Compound 32]	0.68	240	> 10000	–
COc1ccc(CNc2nc(-c3ccncc3)nc3sc(C(=O)Nc4nccs4)c(C)c23)cc1Cl [Compound 33]	0.095	–	–	–
COc1ccc(CNc2nc(-c3ccncc3)nc3sc(C(=O)NCCO[N+](=O)[O-])c(C)c23)cc1Cl [Compound 38]	0.65	–	–	–
COc1ccc(CNc2nc(-c3ccccn3)nc3sc(C(=O)Nc4ccccc4)c(C)c23)cc1Cl [Compound 44]	6.4	–	> 10000	–
COc1ccc(CNc2nc(-c3ccccn3)nc3sc(C(=O)Nc4nccs4)c(C)c23)cc1Cl [Compound 50]	2.3	–	–	–
COc1ccc(CNc2nc(-c3ccccn3)nc3sc(C(=O)Nc4cccnc4)c(C)c23)cc1Cl [Compound 51]	7.2	–	–	–
COc1ccc(CNc2nc(C(=O)Nc3ccccc3)nc3sc(-c4cccnc4)c(C)c23)cc1Cl [Compound 57]	0.29	–	–	–
COc1ccc(CNc2nc(C(=O)Nc3ccccc3)nc3sc(-c4ccncc4)c(C)c23)cc1Cl [Compound 68]	0.27	10000	> 10000	2400
COc1ccc(CNc2nc(C(=O)Nc3ccccc3)nc3sc(C(=O)Nc4ccccc4)c(C)c23)cc1Cl [Compound 87]	0.27	–	–	–
COc1ccc(CNc2nc(C(=O)Nc3ccccc3)nc3sc(-c4ccc(F)cc4)c(C)c23)cc1Cl [Compound 90]	0.43	8400	> 10000	> 10000
COc1ccc(CNc2nc(C(=O)Nc3ccccc3)nc3scc(C)c23)cc1Cl [Compound 91]	2.5	3400	> 10000	> 10000
CCOC(=O)c1nc(NCc2ccc(OC)c(Cl)c2)c2cc(-c3ccccc3)sc2n1 [Compound 93]	2.9	> 10000	> 10000	> 10000
COc1ccc(CNc2nc(C(=O)Nc3ccccc3)nc3sc(-c4ccccc4)cc23)cc1Cl [Compound 94]	0.71	5600	> 10000	> 10000
CCCc1nn(C)c2c(=O)[nH]c(-c3cc(S(=O)(=O)N4CCN(C)CC4)ccc3OCC)nc12 [Control, Sildenafil, reference compound]	–	> 1000	2000	–
